Test system: T47D
Assay: Cytotoxicity against human T47D cells at 10 uM after 48 hrs by coulter counter analysis
Format: functional
Conditions: read-out: GI
For Nc1ncc(Sc2nc3ccc(Cl)cc3c(=O)n2Cc2ccccc2)s1, the inhibition of growth at 10 µM was 10.4%.

Test system: Hs-578T
Assay: Cytotoxicity against human Hs578T cells at 10 uM after 48 hrs by coulter counter analysis
Format: functional
Conditions: read-out: GI
In the case of Nc1ncc(Sc2nc3ccc(Cl)cc3c(=O)n2Cc2ccccc2)s1, the inhibition of growth at 10 µM is reported as under 10%.

Test system: MCF7
Assay: Cytotoxicity against human MCF7 cells at 10 uM after 48 hrs by coulter counter analysis
Format: functional
Conditions: MCF7, 48 h, read-out: GI
Compound Nc1ncc(Sc2nc3ccc(Cl)cc3c(=O)n2Cc2ccccc2)s1 has an inhibition of growth at 10 µM of under 10%.

Test system: MDA-MB-231
Assay: Cytotoxicity against human MDA-MB-231 cells at 10 uM after 48 hrs by coulter counter analysis
Format: functional
Conditions: MDA-MB-231, 48 h, read-out: GI
Compound Nc1ncc(Sc2nc3ccc(Cl)cc3c(=O)n2Cc2ccccc2)s1 has an inhibition of growth at 10 µM of 11.2%.

Test system: PC-3
Assay: Cytotoxicity against human PC3 cells at 10 uM after 48 hrs by coulter counter analysis
Format: functional
Conditions: PC-3, 48 h, read-out: GI
With Nc1ncc(Sc2nc3ccc(Cl)cc3c(=O)n2Cc2ccccc2)s1 the inhibition of growth at 10 µM was 28.2%.

Test system: UO-31
Assay: Cytotoxicity against human UO31 cells at 10 uM after 48 hrs by coulter counter analysis
Format: functional
Conditions: UO-31, 48 h, read-out: GI
With Nc1ncc(Sc2nc3ccc(Cl)cc3c(=O)n2Cc2ccccc2)s1 the inhibition of growth at 10 µM was 14.8%.

Test system: RXF 393
Assay: Cytotoxicity against human RXF393 cells at 10 uM after 48 hrs by coulter counter analysis
Format: functional
Conditions: RXF 393, 48 h, read-out: GI
With Nc1ncc(Sc2nc3ccc(Cl)cc3c(=O)n2Cc2ccccc2)s1 the inhibition of growth at 10 µM was under 10%.

Test system: SN12C
Assay: Cytotoxicity against human SN12C cells at 10 uM after 48 hrs by coulter counter analysis
Format: functional
Conditions: read-out: GI
Nc1ncc(Sc2nc3ccc(Cl)cc3c(=O)n2Cc2ccccc2)s1 showed an inhibition of growth at 10 µM of under 10%.

Test system: A498
Assay: Cytotoxicity against human A498 cells at 10 uM after 48 hrs by coulter counter analysis
Format: functional
Conditions: A498, 48 h, read-out: GI
For Nc1ncc(Sc2nc3ccc(Cl)cc3c(=O)n2Cc2ccccc2)s1, the inhibition of growth at 10 µM was 11.2%.

Test system: CAKI-1
Assay: Cytotoxicity against human Caki1 cells at 10 uM after 48 hrs by coulter counter analysis
Format: functional
Conditions: CAKI-1, 48 h, read-out: GI
For Nc1ncc(Sc2nc3ccc(Cl)cc3c(=O)n2Cc2ccccc2)s1, the inhibition of growth at 10 µM was 25.6%.

Test system: not listed separately
Assay: Cytotoxicity against human NCI-ADR-RES cells at 10 uM after 48 hrs by coulter counter analysis
Format: functional
Conditions: read-out: GI
Nc1ncc(Sc2nc3ccc(Cl)cc3c(=O)n2Cc2ccccc2)s1 gave an inhibition of growth at 10 µM of under 10%.

Test system: OVCAR-4
Assay: Cytotoxicity against human OVCAR4 cells at 10 uM after 48 hrs by coulter counter analysis
Format: functional
Conditions: OVCAR-4, 48 h, read-out: GI
For Nc1ncc(Sc2nc3ccc(Cl)cc3c(=O)n2Cc2ccccc2)s1, the inhibition of growth at 10 µM was 13.8%.

Test system: UACC-62
Assay: Cytotoxicity against human UACC62 cells at 10 uM after 48 hrs by coulter counter analysis
Format: functional
Conditions: UACC-62, 48 h, read-out: GI
Compound Nc1ncc(Sc2nc3ccc(Cl)cc3c(=O)n2Cc2ccccc2)s1 has an inhibition of growth at 10 µM of 14.4%.

Test system: IGROV-1
Assay: Cytotoxicity against human IGROV1 cells at 10 uM after 48 hrs by coulter counter analysis
Format: functional
Conditions: IGROV-1, 48 h, read-out: GI
Nc1ncc(Sc2nc3ccc(Cl)cc3c(=O)n2Cc2ccccc2)s1 gave an inhibition of growth at 10 µM of 12%.

Test system: SK-MEL-5
Assay: Cytotoxicity against human SK-MEL-5 cells at 10 uM after 48 hrs by coulter counter analysis
Format: functional
Conditions: SK-MEL-5, 48 h, read-out: GI
In the case of Nc1ncc(Sc2nc3ccc(Cl)cc3c(=O)n2Cc2ccccc2)s1, the inhibition of growth at 10 µM is reported as under 10%.

Test system: Malme-3M
Assay: Cytotoxicity against human MALME-3M cells at 10 uM after 48 hrs by coulter counter analysis
Format: functional
Conditions: read-out: GI
For Nc1ncc(Sc2nc3ccc(Cl)cc3c(=O)n2Cc2ccccc2)s1, the inhibition of growth at 10 µM was 10.8%.

Test system: MDA-MB-435
Assay: Cytotoxicity against human MDA-MB-435 cells at 10 uM after 48 hrs by coulter counter analysis
Format: functional
Conditions: MDA-MB-435, 48 h, read-out: GI
With Nc1ncc(Sc2nc3ccc(Cl)cc3c(=O)n2Cc2ccccc2)s1 the inhibition of growth at 10 µM was under 10%.

Test system: SNB-75
Assay: Cytotoxicity against human SNB75 cells at 10 uM after 48 hrs by coulter counter analysis
Format: functional
Conditions: SNB-75, 48 h, read-out: GI
With Nc1ncc(Sc2nc3ccc(Cl)cc3c(=O)n2Cc2ccccc2)s1 the inhibition of growth at 10 µM was 10.7%.

Test system: LOX IMVI
Assay: Cytotoxicity against human LOXIMVI cells at 10 uM after 48 hrs by coulter counter analysis
Format: functional
Conditions: read-out: GI
Work on Nc1ncc(Sc2nc3ccc(Cl)cc3c(=O)n2Cc2ccccc2)s1 yielded an inhibition of growth at 10 µM of 14.9%.

Test system: SNB-19
Assay: Cytotoxicity against human SNB19 cells at 10 uM after 48 hrs by coulter counter analysis
Format: functional
Conditions: SNB-19, 48 h, read-out: GI
Compound Nc1ncc(Sc2nc3ccc(Cl)cc3c(=O)n2Cc2ccccc2)s1 has an inhibition of growth at 10 µM of under 10%.

Test system: NCI-H522
Assay: Cytotoxicity against human NCI-H522 cells at 10 uM after 48 hrs by coulter counter analysis
Format: functional
Conditions: NCI-H522, 48 h, read-out: GI
Nc1ncc(Sc2nc3ccc(Cl)cc3c(=O)n2Cc2ccccc2)s1 showed an inhibition of growth at 10 µM of 16%.

Test system: SF-295
Assay: Cytotoxicity against human SF295 cells at 10 uM after 48 hrs by coulter counter analysis
Format: functional
Conditions: SF-295, 48 h, read-out: GI
With Nc1ncc(Sc2nc3ccc(Cl)cc3c(=O)n2Cc2ccccc2)s1 the inhibition of growth at 10 µM was 16.6%.

Test system: NCI-H23
Assay: Cytotoxicity against human NCI-H23 cells at 10 uM after 48 hrs by coulter counter analysis
Format: functional
Conditions: NCI-H23, 48 h, read-out: GI
Nc1ncc(Sc2nc3ccc(Cl)cc3c(=O)n2Cc2ccccc2)s1 gave an inhibition of growth at 10 µM of under 10%.

Test system: not listed separately
Assay: Cytotoxicity against human EKVX cells at 10 uM after 48 hrs by coulter counter analysis
Format: functional
Conditions: read-out: GI
In the case of Nc1ncc(Sc2nc3ccc(Cl)cc3c(=O)n2Cc2ccccc2)s1, the inhibition of growth at 10 µM is reported as 11.9%.

Test system: NCI-H226
Assay: Cytotoxicity against human NCI-H226 cells at 10 uM after 48 hrs by coulter counter analysis
Format: functional
Conditions: NCI-H226, 48 h, read-out: GI
Nc1ncc(Sc2nc3ccc(Cl)cc3c(=O)n2Cc2ccccc2)s1 gave an inhibition of growth at 10 µM of 17.1%.

Test system: A549
Assay: Cytotoxicity against human A549/ATCC cells at 10 uM after 48 hrs by coulter counter analysis
Format: functional
Conditions: A549, 48 h, read-out: GI
For Nc1ncc(Sc2nc3ccc(Cl)cc3c(=O)n2Cc2ccccc2)s1, the inhibition of growth at 10 µM was under 10%.

Test system: RPMI-8226
Assay: Cytotoxicity against human RPMI8226 cells at 10 uM after 48 hrs by coulter counter analysis
Format: functional
Conditions: RPMI-8226, 48 h, read-out: GI
In the case of Nc1ncc(Sc2nc3ccc(Cl)cc3c(=O)n2Cc2ccccc2)s1, the inhibition of growth at 10 µM is reported as 18.9%.

Test system: SR
Assay: Cytotoxicity against human SR cells at 10 uM after 48 hrs by coulter counter analysis
Format: functional
Conditions: read-out: GI
Compound Nc1ncc(Sc2nc3ccc(Cl)cc3c(=O)n2Cc2ccccc2)s1 has an inhibition of growth at 10 µM of under 10%.

Test system: MOLT-4
Assay: Cytotoxicity against human MOLT4 cells at 10 uM after 48 hrs by coulter counter analysis
Format: functional
Conditions: MOLT-4, 48 h, read-out: GI
Compound Nc1ncc(Sc2nc3ccc(Cl)cc3c(=O)n2Cc2ccccc2)s1 has an inhibition of growth at 10 µM of 16.8%.

Test system: CCRF-CEM
Assay: Cytotoxicity against human CCRF-CEM cells at 10 uM after 48 hrs by coulter counter analysis
Format: functional
Conditions: read-out: GI
For Nc1ncc(Sc2nc3ccc(Cl)cc3c(=O)n2Cc2ccccc2)s1, the inhibition of growth at 10 µM was 13.7%.

Test system: HL-60(TB)
Assay: Cytotoxicity against human HL-60(TB) cells at 10 uM after 48 hrs by coulter counter analysis
Format: functional
Conditions: HL-60, 48 h, read-out: GI
Work on Nc1ncc(Sc2nc3ccc(Cl)cc3c(=O)n2Cc2ccccc2)s1 yielded an inhibition of growth at 10 µM of under 10%.

Test system: Pseudomonas aeruginosa
Assay: Antimicrobial activity against Pseudomonas aeruginosa at 200 ug after 24 hrs by agar disc diffusion method
Format: functional
Conditions: read-out: DIZ
Work on Nc1ncc(Sc2nc3ccc(Cl)cc3c(=O)n2Cc2ccccc2)s1 yielded a zone of inhibition at 200 µg/disc of 8 mm.

Test system: Escherichia coli
Assay: Antimicrobial activity against Escherichia coli at 200 ug after 24 hrs by agar disc diffusion method
Format: functional
Conditions: read-out: DIZ
With Nc1ncc(Sc2nc3ccc(Cl)cc3c(=O)n2Cc2ccccc2)s1 the zone of inhibition at 200 µg/disc was 15 mm.

Test system: Micrococcus luteus
Assay: Antimicrobial activity against Micrococcus luteus at 200 ug after 24 hrs by agar disc diffusion method
Format: functional
Conditions: read-out: DIZ
In the case of Nc1ncc(Sc2nc3ccc(Cl)cc3c(=O)n2Cc2ccccc2)s1, the zone of inhibition at 200 µg/disc is reported as 8 mm.

Test system: Bacillus subtilis
Assay: Antimicrobial activity against Bacillus subtilis at 200 ug after 24 hrs by agar disc diffusion method
Format: functional
Conditions: read-out: DIZ
For Nc1ncc(Sc2nc3ccc(Cl)cc3c(=O)n2Cc2ccccc2)s1, the zone of inhibition at 200 µg/disc was 18 mm.

Biological target: T1, Dihydrofolate reductase (Bos taurus, UniProt P00376)
T1 sequence (P00376 whole entry): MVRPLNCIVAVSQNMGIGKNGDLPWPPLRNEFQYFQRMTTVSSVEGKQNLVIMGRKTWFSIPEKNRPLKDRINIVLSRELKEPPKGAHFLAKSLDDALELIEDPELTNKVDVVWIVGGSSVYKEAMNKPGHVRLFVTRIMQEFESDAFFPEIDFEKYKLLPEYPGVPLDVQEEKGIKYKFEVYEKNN
Assay: Inhibition of bovine DHFR after 2 mins by spectrophotometry
Conditions: not given
Compound Nc1ncc(Sc2nc3ccc(Cl)cc3c(=O)n2Cc2ccccc2)s1 has an IC50 of 2 µM.

Test system: Staphylococcus aureus
Assay: Antimicrobial activity against Staphylococcus aureus at 200 ug after 24 hrs by agar disc diffusion method
Format: functional
Conditions: read-out: DIZ
For Nc1ncc(Sc2nc3ccc(Cl)cc3c(=O)n2Cc2ccccc2)s1, the zone of inhibition at 200 µg/disc was 16 mm.
